Measurements as given in publication PMC6043687, “Structural Analysis of Phosphoserine Aminotransferase (Isoform 1) From Arabidopsis thaliana– the Enzyme Involved in the Phosphorylated Pathway of Serine Biosynthesis” (Frontiers in Plant Science, 2018).

How the values were obtained:
AtPSAT1 [1] = molecular target: T1, AtPSAT1 (Arabidopsis thaliana, UniProt Q96255); experiment: X-ray crystallography: conversion of bound PLP to PMP; format: biochemical; details: 10 mM Glu added before crystallization; pH 8.5; Glu itself not present in the structure
T1 construct: gene PSAT1; residues 72-430 (71-residue chloroplast transit peptide removed), 359 residues plus N-terminal SNA left after TEV cleavage of His6-tag; E. coli BL21 Gold, pMCSG68; homodimer (~80 kDa by SEC)
T1 sequence (Q96255 72-430): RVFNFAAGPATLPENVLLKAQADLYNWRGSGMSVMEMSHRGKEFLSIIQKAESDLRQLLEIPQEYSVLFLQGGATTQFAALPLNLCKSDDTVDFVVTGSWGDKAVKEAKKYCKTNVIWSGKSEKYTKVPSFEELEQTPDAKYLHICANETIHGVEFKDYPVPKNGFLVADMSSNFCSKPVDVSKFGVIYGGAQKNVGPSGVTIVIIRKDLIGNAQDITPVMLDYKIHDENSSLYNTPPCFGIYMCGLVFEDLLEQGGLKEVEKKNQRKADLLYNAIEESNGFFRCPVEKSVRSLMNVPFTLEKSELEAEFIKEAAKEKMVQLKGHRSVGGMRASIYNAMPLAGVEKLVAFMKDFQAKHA

AtPSAT1 [2] = molecular target: T1, AtPSAT1; experiment: X-ray crystallography, […] Å; format: binding; details: covalent; internal aldimine (Schiff base) with K265; 1 mM PLP added; pH 8.5, 0.2 M lithium sulfate
AtPSAT1 [3] = molecular target: T1, AtPSAT1; experiment: X-ray crystallography, […] Å; format: binding; details: PMP formed from PLP by addition of 10 mM Glu; not covalently bound to K265; pH 8.5, 0.2 M lithium sulfate
AtPSAT1 [4] = molecular target: T1, AtPSAT1; experiment: X-ray crystallography, […] Å; format: binding; details: covalent; PLP-PSer geminal diamine intermediate also bound to K265; cocrystallized with 50 mM PSer, pH 8.5, no lithium sulfate
[5] = molecular target: the molecule itself; experiment: SEC; HiLoad Superdex 200 16/60; 25 mM HEPES pH 7.4, 100 mM KCl, 50 mM NaCl, 1 mM TCEP; protein mass calculated from the retention volume (~80 kDa)

In the case of `N[C@@H](CCC(=O)O)C(=O)O` [Glu], the “first half-transamination observed in crystal” value (AtPSAT1 [1]) is reported as “electron density maps (Figures 6A,B) revealed the cofactor with the amino group already transferred from Glu”.

In the case of `Cc1ncc(COP(=O)(O)O)c(C=O)c1O` [PLP], the crystal structure (AtPSAT1 [2]) is reported as “The PLP prosthetic group creates a Schiff base (internal aldimine) between C4′ and Nζ of K265”.

For `Cc1ncc(COP(=O)(O)O)c(CN)c1O` [PMP], the crystal structure (AtPSAT1 [3]) was “Position of PMP is almost identical as PLP, thus its interactions with the protein are preserved”.

With `N[C@@H](COP(=O)(O)O)C(=O)O` [PSer] the crystal structure (AtPSAT1 [4]) was “The bound PSer creates several hydrogen bonds in the active site”.

B1: Phosphoserine aminotransferase isoform 1 from Arabidopsis thaliana (AtPSAT1), residues 72-430 (enzyme, UniProt Q96255 72-430, looked up)
chain: T1 sequence (Q96255 72-430)
modifications: PLP covalently bound to the catalytic K265 (internal aldimine, 6czx); PMP not covalently bound (6czy); cofactor covalently bound to both K265 and PSer (geminal diamine, 6czz)
notes: Phosphoserine aminotransferase isoform 1, chloroplastic, Arabidopsis thaliana; subunit of 430 residues including the transit peptide; construct truncated before R72 (71-residue chloroplast transit peptide removed), residues 72-430, 359 residues; After TEV cleavage the N-terminal residues SNA remain in front of R72 (vector pMCSG68); Crystallised with 1 mM PLP; with 10 mM Glu (PMP form) or 50 mM …
With B1 the “stoichiometry N” value [5] was 2.
